Non-standard residues stand in square brackets, D forms with d. Residues, ends and D or L forms follow the SMILES beside them. No end group written: not given here. *: point of attachment. Sta = CC(C)C[C@H](N)[C@@H](O)CC(=O)O; Isovaleryl = CC(C)CC(=O)*
Key:
[1] = system: memapsin 2 (M2) cleavage of APP in HeLa cells; test: APP beta-secretase site cleavage in HeLa cells co-transfected with APP and M2 (pulse-chase, immunoprecipitation, SDS-PAGE); type: cell-based, human; settings: HeLa cells co-transfected with APP and M2, inhibitor included in the media
[2] = biological target: T1, recombinant memapsin 2 (Homo sapiens, UniProt P56817); test: Value; design: expressed in E. coli in two different lengths, both without the transmembrane region; 15 N-terminal residues from vector pET11a (T7 protein leader) (N); made in house; host or cells: E. coli BL21 (DE3)
Protocol: Table printed on a drawing sheet, FIG. 4A
Footnotes: [Mep2] = 0.47 µM / [Fluo. Substrate] = 29.9 µM / Buffer: Na Acetate 0.1 M, 5% DMSO, pH 4.5 at 37°C / Excitation at 350 nm / Emission at 490 nm
The patent's description of the figure: FIG. 4A is a graph of the inhibition of recombinant memapsin 2 by OM99-1.
First copying reader's note: Fit parameter (Ki) of the inhibition curve of memapsin 2 by OM99-1 plotted above the table; no unit is printed for Ki, and the plot's concentration axis is in M.
Where the first naming reader finds the target: description_of_the_figure: FIG. 4A is a graph of the inhibition of recombinant memapsin 2 by OM99-1.
Target sequence in this assay (P56817 46-457): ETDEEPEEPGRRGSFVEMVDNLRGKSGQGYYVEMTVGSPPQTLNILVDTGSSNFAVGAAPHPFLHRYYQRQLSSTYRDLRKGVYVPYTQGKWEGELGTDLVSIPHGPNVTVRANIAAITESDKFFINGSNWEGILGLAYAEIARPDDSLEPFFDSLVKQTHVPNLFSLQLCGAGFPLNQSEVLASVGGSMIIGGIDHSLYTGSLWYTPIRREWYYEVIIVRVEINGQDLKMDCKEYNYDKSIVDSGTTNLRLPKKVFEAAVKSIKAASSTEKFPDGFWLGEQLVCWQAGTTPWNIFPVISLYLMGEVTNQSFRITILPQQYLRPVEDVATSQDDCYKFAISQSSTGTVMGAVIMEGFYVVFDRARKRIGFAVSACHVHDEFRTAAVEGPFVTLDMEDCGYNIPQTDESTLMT

[3] = biological target: T1, recombinant memapsin 2; test: Inhibition of recombinant memapsin 2, synthetic fluorogenic peptide substrate; type: biochemical; settings: recombinant memapsin 2, synthetic fluorogenic peptide substrate (FIG. 4A/4B)
Target sequence in this assay (P56817 46-457 limits assumed): as the sequence (P56817 46-457) above
Excerpt: The substrate used was a synthetic fluorogenic peptide substrate.

[4] = biological target: T2, M2pd (Homo sapiens, UniProt P56817); test: Inhibition of M2pd by pepstatin A; type: biochemical
T2 construct: 15 N-terminal residues from vector pET11a (T7 protein leader) (N, cleaved yes); made in house
T2 sequence (P56817 14-419 limits assumed): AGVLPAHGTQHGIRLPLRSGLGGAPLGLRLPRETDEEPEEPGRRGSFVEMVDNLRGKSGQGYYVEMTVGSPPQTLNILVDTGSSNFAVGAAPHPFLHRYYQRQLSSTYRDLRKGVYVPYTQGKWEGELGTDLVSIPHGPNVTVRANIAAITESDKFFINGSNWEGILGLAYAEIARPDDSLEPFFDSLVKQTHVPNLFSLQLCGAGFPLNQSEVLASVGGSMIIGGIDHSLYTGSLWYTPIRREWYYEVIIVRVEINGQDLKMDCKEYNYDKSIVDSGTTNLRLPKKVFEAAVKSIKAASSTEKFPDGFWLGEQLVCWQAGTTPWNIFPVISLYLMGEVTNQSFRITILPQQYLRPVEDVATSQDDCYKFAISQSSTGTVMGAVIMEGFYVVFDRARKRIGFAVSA

[5] = biological target: T2, M2pd; test: Steady-state kinetics of hydrolysis of peptide substrates by M2pd; type: biochemical; settings: peptide substrate hydrolysed by M2pd, pH 4.0
Protocol: Incubation in 0.1M sodium acetate, pH 4.0, for 16 h at 22° C. auto-catalytically converted pro-M2pd to M2pd . For initial hydrolysis tests, two synthetic peptides were separately incubated with pro-M2pd in 0.1M Na acetate, pH 4.0 for different periods ranging from 2 to 18 h. The incubated samples were subjected to LC/MS for the identification of the hydrolytic products. For kinetic studies, the identified HPLC (Beckman System Gold) product peaks were integrated for quantitation. The Km and kcat values for presenilin 1 and Swedish APP peptides (Table 1) were measured by steady-state kinetics. The individual Km and Kcat values for APP peptide could not be measured accurately by standard methods, so its kcat/Km value was measured by competitive hydrolysis of mixed substrates against presenilin 1 peptide (Fersht, A. “Enzyme Structure and Mechanism”, 2nd Ed., W. H. Freeman and Company, New York. (1985)).

In the case of `CO/C1=C\C(C)=C\[C@@H](C)[C@@H](O)[C@@H](C)C/C(C)=C/C=C/[C@H](OC)[C@@H]([C@@H](C)[C@@H](O)[C@H](C)[C@@]2(O)C[C@@H](O)[C@H](C)[C@@H](C(C)C)O2)OC1=O` [Bafilomycin A1], the “production of APP beta N- and beta C-fragments” value [1] is reported as “abolished the production of both APP fragments”.

With `CC(C)C[C@H](NC(=O)[C@H](CC(N)=O)NC(=O)[C@@H](N)C(C)C)[C@@H](O)C[C@@H](C)C(=O)N[C@@H](C)C(=O)N[C@@H](CCC(=O)O)C(=O)N[C@@H](Cc1ccccc1)C(=O)O` [OM99-1, Val-Asn-Leu*Ala-Ala-Glu-Phe] (HELM PEPTIDE1{V.N.[CC(C)C[C@H](N[*:1])[C@@H](O)C[C@@H](C)C(=O)[*:2]].A.E.F}$$$$V2.0) the Ki [2] was 68.4 nM and the Ki [3] was 30 nM.

`CC(C)CC(=O)N[C@H](C(=O)N[C@H](C(=O)N[C@@H](CC(C)C)[C@@H](O)CC(=O)N[C@@H](C)C(=O)N[C@@H](CC(C)C)[C@@H](O)CC(=O)O)C(C)C)C(C)C` [Pepstatin A] (Isovaleryl-VV[Sta]A[Sta]-OH) was tested, and the IC50 [4] was roughly 300000 nM.

“SEVNLDAEFR [Swedish APP peptide, SEVNL/DAEFR]” gave a Km [5] of 1 mM.

“SVNM/AEGD (SVNMAEGD) [presenilin 1, substrate peptide derived from the processing site of presenilin 1]” was tested, and the Km [5] was 15.2 mM and the kcat [5] was 0.67 s⁻¹.

From patent US6545127B1, “Catalytically active recombinant memapsin and methods of use thereof” (Oklahoma Medical Research Foundation, priority 1999, dated 2003)
